Test results as given in ChEMBL document CHEMBL1201862, “PubChem BioAssay data set” (2004).
Calls of active or inactive are those of the source.

Columns and labels:
Protein Wnt-3a = Protein Wnt-3a (Mus musculus, UniProt P27467); test: SAR analysis of small molecule antagonists of Gli-SUFU in a Wnt3a luminescent reporter assay.; assay type: functional
[1] = THP-1 cell cytotoxicity, dose response, cytotoxicity control for non-replicating M. tuberculosis project (AID 489025); assay type: functional
Nonstructural protein 1 = Nonstructural protein 1 (Influenza A virus, UniProt Q194T2); assay type: functional, Influenza A virus (A/California/07/2009(H1N1))
Sequence of Nonstructural protein 1 (Q194T2 whole entry): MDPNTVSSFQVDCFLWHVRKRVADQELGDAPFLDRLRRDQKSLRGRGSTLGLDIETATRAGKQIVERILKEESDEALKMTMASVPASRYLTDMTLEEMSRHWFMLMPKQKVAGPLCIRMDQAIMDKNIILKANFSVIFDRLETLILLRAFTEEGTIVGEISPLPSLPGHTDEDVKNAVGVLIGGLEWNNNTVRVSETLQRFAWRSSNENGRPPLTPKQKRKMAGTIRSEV

Albumin = Albumin (Bos taurus, UniProt P02769); test: Counterscreen for inhibitors of T-cell receptor (TCR)-CD3 interaction: Fluorescence-based biochemical high throughput dose response assay to identify inhibitors of T-cell receptor (TCR)-CD3 interaction using a TAMRA-labeled BSA probe.; assay type: functional
Sequence of Albumin (P02769 whole entry): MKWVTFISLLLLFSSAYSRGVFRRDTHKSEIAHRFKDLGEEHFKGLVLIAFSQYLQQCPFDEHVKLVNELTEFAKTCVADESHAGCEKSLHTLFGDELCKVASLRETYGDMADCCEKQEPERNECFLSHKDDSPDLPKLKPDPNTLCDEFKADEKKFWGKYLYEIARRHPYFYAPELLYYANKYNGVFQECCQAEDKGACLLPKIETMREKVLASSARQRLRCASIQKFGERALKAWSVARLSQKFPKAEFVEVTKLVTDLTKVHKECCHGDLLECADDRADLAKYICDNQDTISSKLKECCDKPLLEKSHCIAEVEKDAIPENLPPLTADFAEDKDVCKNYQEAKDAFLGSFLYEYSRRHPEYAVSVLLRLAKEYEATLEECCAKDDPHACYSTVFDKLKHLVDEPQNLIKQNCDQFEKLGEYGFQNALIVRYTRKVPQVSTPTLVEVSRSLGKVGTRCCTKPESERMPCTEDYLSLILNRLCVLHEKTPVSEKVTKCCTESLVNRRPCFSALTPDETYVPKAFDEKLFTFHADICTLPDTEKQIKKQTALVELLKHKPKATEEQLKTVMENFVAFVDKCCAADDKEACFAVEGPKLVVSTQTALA

[2] = inhibitors of intracellular T. cruzi replication, confirmation, NIH3T3 host cells, beta-gal luminescence (AID 2044); assay type: functional, cell-based;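 note: intracellular parasites grown in NIH/3T3 mouse fibroblasts as host cells; luminescent beta-galactosidase reporter signal from transgenic T. cruzi replicating inside host cells; inhibitors lower the luminescence signal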
[3] = cytotoxicity toward NIH3T3 fibroblasts, dose response, counter-screen, cell-based, ATP luminescence, mouse fibroblasts (AID 2010); assay type: functional;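 note: cells exposed to compound for about 90 hours before reading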
[4] = target: T1, Carboxy-terminal domain RNA polymerase II polypeptide A small phosphatase 1 (Homo sapiens, UniProt Q9GZU7); test: inhibitors of CTDSP1, concentration-response testing, biochemical assay, absorbance-based, actives from ultra-high-throughput screening (AID 540297); assay type: functional
T1 sequence (Q9GZU7 whole entry): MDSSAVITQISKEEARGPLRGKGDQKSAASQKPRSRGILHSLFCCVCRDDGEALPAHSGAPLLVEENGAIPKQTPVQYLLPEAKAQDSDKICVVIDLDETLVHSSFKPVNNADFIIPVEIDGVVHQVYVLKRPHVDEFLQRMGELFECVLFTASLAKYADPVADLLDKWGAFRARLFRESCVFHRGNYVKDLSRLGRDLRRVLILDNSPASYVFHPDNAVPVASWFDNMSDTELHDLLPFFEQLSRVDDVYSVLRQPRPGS

Caspase-6 = target: T2, Caspase-6 (Homo sapiens, UniProt P55212); test: human caspase-6 inhibitors, dose response, biochemical, VEID-R110 fluorescence, cherry-pick (AID 720632)
T2 sequence (P55212 whole entry): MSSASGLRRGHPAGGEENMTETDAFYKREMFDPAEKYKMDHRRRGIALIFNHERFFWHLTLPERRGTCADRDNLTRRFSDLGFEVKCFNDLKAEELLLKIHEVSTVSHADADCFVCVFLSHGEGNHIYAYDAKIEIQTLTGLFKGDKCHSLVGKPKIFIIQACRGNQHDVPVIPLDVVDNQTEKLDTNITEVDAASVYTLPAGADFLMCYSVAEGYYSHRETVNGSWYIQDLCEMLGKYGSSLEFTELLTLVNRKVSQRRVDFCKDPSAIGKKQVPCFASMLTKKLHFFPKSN

Large T antigen = Large T antigen (Simian virus 40, UniProt P03070); assay type: functional, Betapolyomavirus macacae;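 note: Confirmatory-stage PubChem screen for compounds that inhibit SV40 T antigen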
Sequence of Large T antigen (P03070 whole entry): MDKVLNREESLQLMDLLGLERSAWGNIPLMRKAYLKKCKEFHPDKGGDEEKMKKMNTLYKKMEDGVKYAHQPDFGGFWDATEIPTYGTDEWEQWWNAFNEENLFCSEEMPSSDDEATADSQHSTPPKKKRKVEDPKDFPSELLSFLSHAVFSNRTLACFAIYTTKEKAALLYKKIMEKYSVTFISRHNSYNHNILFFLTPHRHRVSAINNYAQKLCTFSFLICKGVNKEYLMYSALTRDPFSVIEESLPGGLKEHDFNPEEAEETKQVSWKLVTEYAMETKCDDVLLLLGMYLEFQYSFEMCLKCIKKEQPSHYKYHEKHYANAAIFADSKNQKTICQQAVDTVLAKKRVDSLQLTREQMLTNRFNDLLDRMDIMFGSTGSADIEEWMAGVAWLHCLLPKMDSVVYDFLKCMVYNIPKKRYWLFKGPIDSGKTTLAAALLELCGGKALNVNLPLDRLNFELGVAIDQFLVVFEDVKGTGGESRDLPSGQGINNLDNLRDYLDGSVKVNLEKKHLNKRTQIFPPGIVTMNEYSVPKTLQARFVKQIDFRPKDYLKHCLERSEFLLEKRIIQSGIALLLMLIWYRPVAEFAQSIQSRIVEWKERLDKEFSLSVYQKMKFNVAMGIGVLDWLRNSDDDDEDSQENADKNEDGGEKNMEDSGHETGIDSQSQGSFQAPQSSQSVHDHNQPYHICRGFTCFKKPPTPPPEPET

[5] = HeLa cell cytotoxicity, dose response, cytotoxicity control for MgcRacGAP inhibitor project (AID 624300); assay type: functional
[6] = target: T3, Rac GTPase-activating protein 1 (Homo sapiens, UniProt Q9H0H5); test: MgcRacGAP GTPase-activating activity inhibitors, confirmation, biochemical, ADP Hunter fluorescence, primary and confirmatory (AID 624330); assay type: functional
T3 sequence (Q9H0H5 whole entry): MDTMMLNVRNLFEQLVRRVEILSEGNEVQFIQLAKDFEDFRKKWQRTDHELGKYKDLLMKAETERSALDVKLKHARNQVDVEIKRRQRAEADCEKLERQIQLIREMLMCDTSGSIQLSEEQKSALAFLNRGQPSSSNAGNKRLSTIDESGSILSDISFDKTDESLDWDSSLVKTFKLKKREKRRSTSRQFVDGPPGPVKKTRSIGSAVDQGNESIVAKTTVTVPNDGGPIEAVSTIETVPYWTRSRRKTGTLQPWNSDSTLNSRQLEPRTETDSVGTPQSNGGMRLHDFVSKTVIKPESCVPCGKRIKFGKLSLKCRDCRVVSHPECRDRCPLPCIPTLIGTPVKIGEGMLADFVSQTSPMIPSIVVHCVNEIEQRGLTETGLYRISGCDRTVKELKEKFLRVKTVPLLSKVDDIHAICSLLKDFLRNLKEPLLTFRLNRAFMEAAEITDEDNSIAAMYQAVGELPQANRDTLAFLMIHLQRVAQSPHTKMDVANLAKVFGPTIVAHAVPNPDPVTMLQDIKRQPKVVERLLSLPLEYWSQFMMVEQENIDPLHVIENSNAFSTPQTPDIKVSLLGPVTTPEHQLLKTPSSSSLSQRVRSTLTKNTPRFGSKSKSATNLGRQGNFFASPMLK

cells [7] = assay type: functional, cell-based
[8] = target: T4, Trace amine-associated receptor 1 (Homo sapiens, UniProt Q96RJ0); test: Fluorescence-based cell-based high throughput dose response assay to identify agonists of the human trace amine associated receptor 1 (TAAR1).; assay type: functional
T4 sequence (Q96RJ0 whole entry): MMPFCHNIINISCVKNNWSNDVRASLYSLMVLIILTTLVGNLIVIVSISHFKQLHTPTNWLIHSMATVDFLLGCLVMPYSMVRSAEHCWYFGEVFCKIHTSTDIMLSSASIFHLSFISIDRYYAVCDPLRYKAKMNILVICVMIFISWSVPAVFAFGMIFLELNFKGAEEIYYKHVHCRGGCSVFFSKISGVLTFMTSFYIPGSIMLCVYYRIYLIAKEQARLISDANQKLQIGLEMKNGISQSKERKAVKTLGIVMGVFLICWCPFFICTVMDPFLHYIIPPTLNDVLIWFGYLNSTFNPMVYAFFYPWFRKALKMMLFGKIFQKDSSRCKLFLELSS

[9] = target: T4, Trace amine-associated receptor 1; test: Counterscreen for agonists of the human trace amine associated receptor 1 (hTAAR1): Fluorescence-based cell-based high throughput dose response assay to identify hTAAR1 agonist that also desensitize TAAR1 receptor response.; assay type: functional
cells [10] = assay type: functional, cell-based; remark: listed apart in the source
Cytochrome P450 2C9 = Cytochrome P450 2C9 (Homo sapiens, UniProt P11712)
Sequence of Cytochrome P450 2C9 (P11712 whole entry): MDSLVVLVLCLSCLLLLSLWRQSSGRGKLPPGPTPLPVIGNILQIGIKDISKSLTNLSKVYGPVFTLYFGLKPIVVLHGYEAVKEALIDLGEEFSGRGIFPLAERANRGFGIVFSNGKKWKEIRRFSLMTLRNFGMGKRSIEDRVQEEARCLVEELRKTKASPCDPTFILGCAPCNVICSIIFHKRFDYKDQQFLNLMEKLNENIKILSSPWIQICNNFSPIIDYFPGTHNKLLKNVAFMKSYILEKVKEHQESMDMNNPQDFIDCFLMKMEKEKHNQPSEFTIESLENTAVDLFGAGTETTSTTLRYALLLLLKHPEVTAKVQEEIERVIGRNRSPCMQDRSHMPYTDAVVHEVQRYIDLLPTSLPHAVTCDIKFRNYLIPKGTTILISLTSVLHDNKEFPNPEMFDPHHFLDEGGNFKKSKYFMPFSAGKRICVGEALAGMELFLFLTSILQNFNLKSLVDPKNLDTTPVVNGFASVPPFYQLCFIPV

[11] = target: T5, Replicative DNA helicase DnaB (Mycobacterium tuberculosis, UniProt P9WMR3); test: DnaB intein splicing inhibitors, dose response, biochemical, cell-free fluorescence (AID 449749); assay type: functional
T5 sequence (P9WMR3 whole entry): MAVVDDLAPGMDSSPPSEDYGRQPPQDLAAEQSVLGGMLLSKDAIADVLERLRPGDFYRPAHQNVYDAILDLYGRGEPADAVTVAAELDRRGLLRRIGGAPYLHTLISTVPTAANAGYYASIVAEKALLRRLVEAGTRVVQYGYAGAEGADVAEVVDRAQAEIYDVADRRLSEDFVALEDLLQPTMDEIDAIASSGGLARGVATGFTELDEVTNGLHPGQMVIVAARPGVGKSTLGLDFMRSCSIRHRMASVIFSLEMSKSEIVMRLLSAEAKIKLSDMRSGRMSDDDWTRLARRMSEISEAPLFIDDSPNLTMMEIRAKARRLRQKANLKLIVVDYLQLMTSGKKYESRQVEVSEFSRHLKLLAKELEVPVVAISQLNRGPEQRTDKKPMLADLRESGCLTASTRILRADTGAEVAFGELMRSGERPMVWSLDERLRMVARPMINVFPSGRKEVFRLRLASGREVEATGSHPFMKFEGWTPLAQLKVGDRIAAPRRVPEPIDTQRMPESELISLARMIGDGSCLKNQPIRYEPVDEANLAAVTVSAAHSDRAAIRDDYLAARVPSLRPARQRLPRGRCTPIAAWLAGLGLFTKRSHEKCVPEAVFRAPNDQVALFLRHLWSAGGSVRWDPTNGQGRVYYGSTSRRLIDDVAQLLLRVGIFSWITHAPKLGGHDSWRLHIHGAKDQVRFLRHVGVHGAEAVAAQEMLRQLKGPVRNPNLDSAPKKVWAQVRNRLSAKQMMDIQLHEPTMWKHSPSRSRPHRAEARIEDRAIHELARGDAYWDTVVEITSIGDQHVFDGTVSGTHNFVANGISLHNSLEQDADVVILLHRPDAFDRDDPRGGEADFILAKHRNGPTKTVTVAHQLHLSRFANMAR

Protein RecA = target: T6, Protein RecA (Mycobacterium tuberculosis, UniProt P9WHJ3); test: Fluorescence Cell-Free Homogeneous Dose Retest to Identify Inhibitors of RecA-Intein Splicing Activity. [Related pubchem assays (depositor defined):AID2097, AID2223, AID489010, AID492950]; assay type: functional
T6 sequence (P9WHJ3 whole entry): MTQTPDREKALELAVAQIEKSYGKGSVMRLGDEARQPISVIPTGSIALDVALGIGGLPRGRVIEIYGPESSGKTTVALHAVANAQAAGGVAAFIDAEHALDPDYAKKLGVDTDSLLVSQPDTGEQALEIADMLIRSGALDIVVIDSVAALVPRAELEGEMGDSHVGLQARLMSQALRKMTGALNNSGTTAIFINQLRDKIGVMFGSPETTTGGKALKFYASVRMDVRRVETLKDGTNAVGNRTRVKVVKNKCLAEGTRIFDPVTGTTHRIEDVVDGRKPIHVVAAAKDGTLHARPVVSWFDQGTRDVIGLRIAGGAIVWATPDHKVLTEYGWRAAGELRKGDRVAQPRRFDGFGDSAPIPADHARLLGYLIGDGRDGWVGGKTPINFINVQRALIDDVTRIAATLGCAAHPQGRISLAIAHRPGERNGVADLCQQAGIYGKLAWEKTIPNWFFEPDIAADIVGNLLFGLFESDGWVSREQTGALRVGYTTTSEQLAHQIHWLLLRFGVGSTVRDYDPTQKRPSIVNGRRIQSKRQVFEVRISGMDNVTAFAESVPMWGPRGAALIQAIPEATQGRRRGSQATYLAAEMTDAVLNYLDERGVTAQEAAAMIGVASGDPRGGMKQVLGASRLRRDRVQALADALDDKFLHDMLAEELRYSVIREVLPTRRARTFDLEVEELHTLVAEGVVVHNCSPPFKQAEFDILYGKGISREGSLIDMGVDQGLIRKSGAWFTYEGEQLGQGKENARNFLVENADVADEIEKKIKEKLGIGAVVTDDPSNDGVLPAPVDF

[12] = target: T7, Corticotropin-releasing factor receptor 2/Corticotropin-releasing factor-binding protein (Homo sapiens, UniProt P24387+Q13324); test: activators of CRF receptor 2 with binding protein – uHTS hits, confirmation (AID 602473); assay type: functional; settings: read-out: EC50_Mean
T7 sequence (Q13324 whole entry): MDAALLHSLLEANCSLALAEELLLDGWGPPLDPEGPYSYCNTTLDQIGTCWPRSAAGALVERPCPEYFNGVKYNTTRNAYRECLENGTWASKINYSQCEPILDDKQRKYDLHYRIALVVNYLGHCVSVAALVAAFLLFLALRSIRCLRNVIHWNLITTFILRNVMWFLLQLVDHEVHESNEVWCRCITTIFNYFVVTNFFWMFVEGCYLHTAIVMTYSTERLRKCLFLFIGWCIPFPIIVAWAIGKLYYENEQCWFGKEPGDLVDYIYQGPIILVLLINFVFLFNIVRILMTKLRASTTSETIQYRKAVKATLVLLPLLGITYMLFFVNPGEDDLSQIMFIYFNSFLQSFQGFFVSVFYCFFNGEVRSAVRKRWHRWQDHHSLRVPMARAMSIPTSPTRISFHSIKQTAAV
T7 sequence (P24387 whole entry): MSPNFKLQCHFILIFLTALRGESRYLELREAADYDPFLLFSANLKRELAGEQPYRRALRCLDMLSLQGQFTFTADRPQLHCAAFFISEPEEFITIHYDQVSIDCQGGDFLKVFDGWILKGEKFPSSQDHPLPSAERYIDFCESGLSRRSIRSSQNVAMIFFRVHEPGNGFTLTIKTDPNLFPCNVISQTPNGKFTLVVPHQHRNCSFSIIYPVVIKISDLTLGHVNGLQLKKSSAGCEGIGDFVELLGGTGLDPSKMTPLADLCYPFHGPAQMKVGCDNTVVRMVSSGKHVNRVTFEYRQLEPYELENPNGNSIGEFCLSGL

Sequence of Protein Wnt-3a (P27467 whole entry): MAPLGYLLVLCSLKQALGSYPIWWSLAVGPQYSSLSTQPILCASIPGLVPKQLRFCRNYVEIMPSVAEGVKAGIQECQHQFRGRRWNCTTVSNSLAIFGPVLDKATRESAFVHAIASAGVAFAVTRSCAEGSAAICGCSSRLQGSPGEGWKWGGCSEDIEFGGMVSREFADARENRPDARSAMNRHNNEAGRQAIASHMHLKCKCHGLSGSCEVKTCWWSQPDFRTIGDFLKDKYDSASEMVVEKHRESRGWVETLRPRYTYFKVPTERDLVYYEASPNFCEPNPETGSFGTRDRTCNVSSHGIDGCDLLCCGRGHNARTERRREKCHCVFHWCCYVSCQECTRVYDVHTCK

With `O=C(Nc1cc(N2CCSCC2)ncn1)c1ccccc1` the IC50 (Protein Wnt-3a) was > 21.8 µM (inactive).

In the case of `O=C(N/N=C/c1cccc([N+](=O)[O-])c1O)c1cccs1`, the CC50 [1] is reported as 32.4 µM (active), the IC50 (Nonstructural protein 1) is reported as 7.41 µM (active) and the IC50 (Albumin) is reported as > 94.1 µM (inactive).

With `O=C(Nc1cc(N2CCOCC2)ncn1)c1ccccc1` the IC50 (Protein Wnt-3a) was > 21.8 µM (inactive).

For `CC1CCN(S(=O)(=O)c2ccc(NC(=O)Cn3nnc(-c4ccccc4F)n3)cc2)CC1`, the EC50 [2] was 2.23 µM (active), the EC50 [3] was > 60 µM (not active) and the IC50 (Albumin) was > 94.1 µM (inactive).

For `Nc1ccc(C(=O)Nc2ccc3c(O)cc(S(=O)(=O)O)cc3c2)cc1`, the IC50 [4] was 4.61 µM (active) and the AC50 (Caspase-6) was 8.79 µM (active).

In the case of `Cc1nc(NC(=O)c2ccccc2)cc(N2CCCCC2)n1`, the IC50 (Protein Wnt-3a) is reported as > 21.8 µM (inactive).

For `COc1cc(/C=C2\SC(=N)NC2=O)ccc1O`, the IC50 (Large T antigen) was 5.02 µM (active), the CC50 [5] was 69.1 µM (active) and the IC50 [6] was 11.8 µM (active).

For `COC(=O)Nc1ccc(S(=O)(=O)NNC(=O)c2c(O)c3ccccc3[nH]c2=O)cc1`, the IC50 (Albumin) was > 94.1 µM (inactive).

For `COc1cc(CN2CCc3ccccc3C2)cc([N+](=O)[O-])c1O`, the IC50 (cells [7]) was > 29.9 µM (inactive), the EC50 [8] was 1.01 µM (active) and the IC50 [9] was 6.77 µM (active). For the same compound, the EC50 (cells [10]) was > 29.9 µM (inactive).

For `NS(=O)(=O)c1cccc(NC(=O)c2ccc3[nH]cnc3c2)c1`, the IC50 [4] was 7.41 µM (active) and the AC50 (Caspase-6) was 17.3 µM (active).

With `CCOc1ccc(/C=N/CC(O)c2ccccc2)cc1` (centres undefined) the IC50 (cells [7]) was > 29.9 µM (inactive), the EC50 [8] was 0.769 µM (active) and the IC50 [9] was 3.27 µM (active). For the same compound, the EC50 (cells [10]) was > 29.9 µM (inactive).

With `COc1ccc(C(=O)NNC(=O)CSc2nnc(COc3ccc4ccccc4c3)n2C)cc1` the IC50 (cells [7]) was > 29.9 µM (inactive), the EC50 [8] was > 29.9 µM (inactive) and the IC50 [9] was > 29.9 µM (inactive). For the same compound, the EC50 (cells [10]) was > 29.9 µM (inactive) and the AC50 (Cytochrome P450 2C9) was “inconclusive”.

For `O=C([C-](C1=[N+](Cc2ccc(Cl)nc2)CCN1Cc1ccc(Cl)nc1)[N+](=O)[O-])C(Cl)Cl`, the AC50 [11] was 2.03 µM (active), the EC50 (Protein RecA) was 3.48 µM (active) and the EC50 [12] was > 53 µM (inactive). The AC50 (Caspase-6) was 8.77 µM (active).
